Measurements: US5583198A, “Amino acids, peptides or derivatives thereof coupled to fats” (Commonwealth Scientific and Industrial Research Organization, priority 1989, dated 1996)

Key:
[1] = system: RD10 cells (B-cell lymphoma); experiment: 3H-thymidine incorporation (mitogenic effect) in RD10 cells; type: cell-based
Procedure: (§1) ^3 H-thymidine incorporation experiments were carried out in Linbro-Titertek microtitre plates (Flow Laboratories, Inc., U.S.A.) following the method of L. Bradley in "Selected Methods of Cellular Immunology (1980) Eds. B. B. Mishell and S. M. Shiigi; Publisher. W. H. Freeman and Co., U.S.A. pp156. The tests were carried out externally by Dr. D. Rathjen of Peptide Technology Ltd., Dee Why, N.S.W.
1. RD10; a B-cell lymphoma (obtained from the Centre for Immunology, Sydney University, Sydney, NSW.
(§2) RD10 cells (at a cell density 5×10^5 /ml, 100 ul/well) were cultured for 20 hours at 37° C. with 5% CO2 in RPMI 1640 medium, supplemented with 10% Fetal Calf. Serum. Samples to be tested were mixed and sonicated with this medium at a concentration of 5000, 500.50 and 5 ug/ml and 100 ul aliquots added to the cells. The cells were pulsed with 0.5 uCi/well of ^3 H-thymidine and the plates incubated for four more hours before harvesting (Titertek Skatron harvester, Lier, Norway). Incorporated radioactivity was measured by liquid scintillation counting. All assays were performed in triplicate.

[2] = system: U937 cells (human monocyte-like histiocytic lymphoma); experiment: 3H-thymidine incorporation (mitogenic effect) in U937 cells; type: cell-based
Procedure: as §1
2. U937; a human monocyte-like3 histiocytic lymphoma (source: American Tissue Culture Collection).
as §2

papain = target: T1, papain (Carica papaya, UniProt P00784); experiment: Protease treatment with papain (hydrolysis followed by HPLC); type: biochemical; conditions: phosphate buffer pH 6.5, enzyme/substrate 1:50, HPLC monitoring; main product Z-Ala-OH / Z-Gly-OH
T1 construct: purchased Sigma
T1 sequence (P00784 134-345): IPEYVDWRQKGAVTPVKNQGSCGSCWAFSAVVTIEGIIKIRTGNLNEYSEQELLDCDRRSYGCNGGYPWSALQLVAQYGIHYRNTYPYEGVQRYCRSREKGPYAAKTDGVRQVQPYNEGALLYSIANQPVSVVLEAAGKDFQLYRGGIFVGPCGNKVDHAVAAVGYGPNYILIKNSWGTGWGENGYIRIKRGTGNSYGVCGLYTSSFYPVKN
Procedure: (§3) Z-Gly-TRIS and Z-Ala-TRIS were incubated with papain, and Z-Leu-Arg-TRIS with trypsin, to test that the action of proteolytic enzymes could regenerate the starting compounds Z-Gly-OH, Z-Ala-OH and Z-Leu-Arg-OH respectively.
50 ul of a suspension of papain (25 mg/ml, Sigma) was incubated with 20 mM aqueous solution of EDTA (50 ul); 1 Molar solution of mercaptoethanol (25 ul); 50 mM triethylamine (25 ul); and water (100 ul) at 37° C. for 30 min.
a) Papain. Z-Ala-TRIS in 50 mmolar phosphate buffer pH 6.5 (650 ul), 20 mM ethylene-diamise-tetra-acetic acid (100 ul) and water to 1 ml. Activated papain (5 mg/ml) was added to a final enzyme/substrate ratio of 1:50. The reaction was followed by HPLC on C18 reverse phase columns and the hydrolysis product identified by co-chromatography with standards. Blanks were incubated as above using water instead of enzyme solution.

TPCK trypsin = target: T2, TPCK trypsin (Bos taurus, UniProt P00760); experiment: Protease treatment with trypsin (hydrolysis followed by HPLC); type: biochemical; conditions: 0.2M ammonium hydrogen carbonate, 37° C., enzyme/substrate 1:50; product Z-Leu-Arg-OH
T2 sequence (P00760 24-246): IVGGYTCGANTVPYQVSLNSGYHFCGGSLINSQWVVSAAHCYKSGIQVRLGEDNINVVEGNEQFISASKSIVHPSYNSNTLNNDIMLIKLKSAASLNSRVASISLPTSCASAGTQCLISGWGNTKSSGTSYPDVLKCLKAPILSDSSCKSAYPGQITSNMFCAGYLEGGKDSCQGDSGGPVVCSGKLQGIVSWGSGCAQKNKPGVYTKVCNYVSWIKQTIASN
Procedure: as §3
b) Trypsin. Z-Leu-Arg-TRIS was incubated at a concentration between 2 and 10 mg/ml in 0.2M ammonium hydrogen carbonate. Freshly prepared TPCK trypsin (1 mg/ml in water) was added to the solution giving a final enzyme/substrate ratio of 1:50. Samples were incubated at 37° C. and aliquots examined by reverse phase HPLC. Additional amounts of enzyme were added as required.

[3] = system: RD10 cells (B-cell lymphoma); conditions: under these conditions; cited from earlier work

Compound: CCCCCCCCCCCCCCCC(=O)OCC(COC(=O)CCCCCCCCCCCCCCC)(COC(=O)CCCCCCCCCCCCCCC)NC(=O)C(C)N (stereo not drawn) [Ala-TRIS-Tripalmitate]
- 3H-thymidine uptake response compared with Z-Ala-TRIS-Tripalmitate [1]: slightly diminished response
- Thymidine incorporation [2]: slightly diminished responses

Compound: CCCCCCCCCCCCCCCC(=O)OCC(COC(=O)CCCCCCCCCCCCCCC)(COC(=O)CCCCCCCCCCCCCCC)NC(=O)C(C)NC(=O)OCc1ccccc1 (stereo not drawn) [Z-Ala-TRIS-Tripalmitate, Z-Ala-TRIS-TRIPALMITATE]
- 3H-thymidine uptake: increase in cell proliferation compared to control ([1]; 20 hours culture, 4 hours pulse): 3-4 fold
- Thymidine incorporation [2]: close to control
- cytotoxic effects ([2]; at higher concentrations): slight cytotoxic effects

Compound: CC(NC(=O)OCc1ccccc1)C(=O)NC(CO)(CO)CO (stereo not drawn) [Z-Ala-TRIS]
- enzymatic hydrolysis by papain (papain): hydrolysed by papain, albeit very slowly

Compound: O=C(CNC(=O)OCc1ccccc1)NC(CO)(CO)CO [Z-Gly-TRIS]
- enzymatic hydrolysis by papain (papain): hydrolysed by papain, albeit very slowly

Compound: CC(C)C[C@H](NC(=O)OCc1ccccc1)C(=O)N[C@@H](CCCNC(=N)N)C(=O)NC(CO)(CO)CO [Z-Leu-Arg-TRIS]
- enzymatic hydrolysis by trypsin (TPCK trypsin): hydrolyzed slowly

Compound: phytohaemagglutinin
- 3H-thymidine uptake: increase in cell proliferation (known mitogen, for comparison) [3]: 5-10 fold
